{"source": "paper PMC11555678", "about": "“Improved Broad Spectrum Antifungal Drug Synergies with Cryptomycin, a Cdc50-Inspired Antifungal Peptide” (ACS Infectious Diseases, 2024)", "key": {"C. neoformans cdc50Δ": {"test_system": "C. neoformans cdc50Δ", "conditions": "Cdc50 deleted, previous study; cited from earlier work", "procedure": "Our previous studies have identified that the Cn cdc50Δ mutant was highly susceptible to CAS compared to the wild-type.[23] The minimum inhibitory concentration (MIC) of CAS was reduced 4-fold from 16 to 4 μg/mL when Cdc50 was deleted. The surprising observation that loss of Cdc50 sensitized Cryptococcus to CAS led to an obvious question: why did a mutation to a seemingly disparate cellular system-membrane homeostasis proteins have such a dramatic effect on the susceptibility to cell wall biosynthesis inhibitors? It was subsequently discovered that Cdc50 in C. neoformans is unique because it h ..."}, "Cn cdc50Δ": {"test_system": "Cn cdc50Δ", "test": "Intracellular ROS detection (H2DCFDA, flow cytometry)", "type": "cell-based, Cryptococcus neoformans", "conditions": "30 min exposure in YPD", "procedure": "(§1) Protocol was carried out in accordance with previously reported methodologies.[35] Yeast cells were grown ON in liquid YPD, washed once in H2O, and resuspended in fresh YPD. The OD600 was adjusted to 0.2 in YPD. Cells were incubated for 3 h at 30 °C, 225 rpm, and then stained with 10 μM H2DCFDA for 2 h at 30 °C, 225 rpm, in the dark. Stained cells were washed twice with DD-H2O and resuspended in the minimal amount of YPD or calcium-enriched YPD needed to inoculate each technical replicate with cells. Each condition was prepared with four technical replicates. In the dark, the stained cells were titrated with KKOO-NH2 from 0.25 to 1× MIC and incubated for 30 min at 30 °C, 225 rpm, in 1 mL of YPD in 12 mL of vented culture tubes. After treatment, cells were transferred to 1.5 mL Eppendorf and centrifuged for 5 min at 2000 rpm. The cells were washed once with 0.5 mL of PBS and resuspended in 0.2 mL of PBS, and stored on ice for live-cell flow analysis, BD FACS Via (Franklyn Lakes, NJ). 100,000 events were recorded, and singlets were gated from SSC-A × FSC-A plot. Mean fluorescence signal intensity from the probe was plotted as a function of peptide concentration. Cells that remained after FACS were pooled based on their condition and imaged under the fluorescence microscope, Zeiss Axioscope 5."}, "Cn H99": {"test_system": "Cn H99", "test": "Intracellular ROS detection (H2DCFDA, flow cytometry)", "type": "cell-based, Cryptococcus neoformans", "conditions": "30 min exposure in YPD", "procedure": "as §1"}, "[1]": {"test_system": "C. neoformans with macrophage J774 cells", "test": "Phagocytosis assay", "type": "cell-based, Cryptococcus neoformans / murine macrophage", "conditions": "sub-MIC peptide-treated yeast cells coincubated with macrophages for 2 h", "procedure": "The J774A. I macrophage-like cell line (ATCC# TIB-67) was grown in DMEM supplemented with 10% FBS, 5% penstrep, and L-glutamine (1×), and passed 2–3 times per week. The cells were never used after 5 passages. Phagocytosis assay was performed in a 48-well plate using J774 cells (5 × 10^4) in 0.5 mL of fresh DMEM were added to each well and incubated at 37 °C, 5% CO2. To activate the macrophages, 50 units/mL interferon γ (IFN-γ; Invitrogen) and 1 μg/mL lipopolysaccharide (LPS; Sigma) were added to each well. Yeast cells were adjusted to 2.4 × 10^6 cfu/mL in RPMI1640. One mL of cell suspension was aliquoted into a 12 mL vented culture tube. The peptide was added to each tube, and the cells were incubated for 30 min at 30 °C, 225 rpm. The cells were pelleted and resuspended in 100 μL of 20% mouse compliment in PBS. The cells were opsonized at room temperature for 30 min. After opsonization, 10 μL of cell suspension was added to each well. Yeast cells were coincubated with macrophages for 2 h at 37 °C in 5% CO2 in technical triplicates per condition. After coincubation, the supernatant was removed, and the wells were washed 3 times with 200 μL DMEM + penstrep, and then fixed with 200 μL ice cold methanol for 30 min. […] The images were quantified using phagocytosis rate, % phagocytosis, and phagocytic index, eqs 3–5, between 200 and 300 macrophages were counted per technical replicate [drawing 3] […]"}, "[2]": {"test_system": "C. neoformans in macrophage J774 cells", "test": "Macrophage killing assay", "type": "cell-based, Cryptococcus neoformans / murine macrophage", "conditions": "yeast pretreated at sub-MIC for 30 min; 2 or 4 h coincubation", "procedure": "Macrophage killing assay was carried out in accordance with previously reported protocols.[23],[69] After the cell line was activated from −80 °C stock and passaged several times, the cells were washed and resuspended in fresh DMEM + FBS at 1 × 10^5 cell/mL. Each well in a 3 column by 6 row grid in a 48-well plate was charged with 0.5 mL of cell suspension, approximately 50,000 cell/well. Macrophages were grown ON at 37 °C in a tissue culture incubator and were further activated with LPS. Yeast cells were grown ON using standard conditions. Fungal cells were washed twice with H2O, resuspended in PBS, and adjusted to 2.4 × 10^6 cfu/mL in 5 mL RPMI. […] Treated cells were transferred to a 1.5 mL Eppendorf tube, pelleted, and resuspended in 100 μL of 20% mouse compliment in PBS for opsonization. Prior to inoculating the wells with yeast cells for coincubation, the opsonized cells were diluted by an additional 20% with PBS. Each well was inoculated with 10 μL of cell suspension. Cocultures were prepared using three technical replicates. The 48-well plates were inoculated about 30 min apart to allow time to process each plate during the experiment. After 2 h of coincubation, each well was washed three times with 200 μL of warm DMEM + penstrep. […]"}}, "note": "Square brackets hold non-standard residues; d marks the D form. Peptide text beside a SMILES is read from it. * marks the point of attachment. Myristoyl = CCCCCCCCCCCCCC(=O)*; Orn = NCCC[C@H](N)C(=O)O"}
{"smiles": "CC[C@H](C)C[C@H](C)CCCCCCCCC(=O)N[C@H]1C[C@@H](O)[C@@H](NCCN)NC(=O)[C@@H]2[C@@H](O)CCN2C(=O)[C@H]([C@H](O)CCN)NC(=O)[C@H]([C@H](O)[C@@H](O)c2ccc(O)cc2)NC(=O)[C@@H]2C[C@@H](O)CN2C(=O)[C@H]([C@@H](C)O)NC1=O", "note": "[CAS, caspofungin]", "values": [{"measurement": "MIC", "setting": "C. neoformans cdc50Δ", "result": 4, "unit": "µg/mL"}]}
{"smiles": "CCCCCCCCCCCCCC(=O)N[C@@H](Cc1c[nH]c2ccccc12)C(=O)NCC(=O)NCC(=O)N[C@H](C(=O)N[C@@H](CCCN)C(=O)N[C@@H](CCCN)C(=O)N[C@@H](CC(N)=O)C(=O)N[C@@H](Cc1ccc(O)cc1)C(=O)N[C@@H](C)C(N)=O)[C@@H](C)CC", "note": "[KKOO-NH2] (Myristoyl-WGGI[Orn][Orn]NYA-NH2)", "values": [{"measurement": "lowest peptide concentration with elevated ROS production", "setting": "Cn cdc50Δ", "result": 1, "unit": "µg/mL"}, {"measurement": "lowest peptide concentration with elevated ROS production", "setting": "Cn H99", "result": 4, "unit": "µg/mL"}, {"measurement": "phagocytic index or phagocytosis rate vs control", "setting": "[1]", "result": "No statistically significant differences"}, {"measurement": "fungal proliferation inside macrophages vs untreated control", "setting": "[2]", "result": "No statistically significant difference"}]}
